Data: patent US12146004B2, “Polymyxin compounds and uses thereof” (priority 2014, dated 2024)
In brackets after ≈: the same amount, converted by molar mass. Like-named read-outs stand apart in the source and are kept apart here. Bridge positions count the residues as written; N and C are the ends. Square brackets hold non-standard residues; d marks the D form. Peptide text beside a SMILES is read from it. * marks the point of attachment. ξ: configuration not given here. X10 = NC[C@H](OCc1ccc(Cl)cc1)C(=O)*; dCha = N[C@H](CC1CCCCC1)C(=O)O; Thr(3ξ) = CC(O)[C@H](N)C(=O)O; X21 = NCC(CC1CCCCC1)C(=O)*; Dab = NCC[C@H](N)C(=O)O; Dap = NC[C@H](N)C(=O)O

Tests used:
Assay type in all cases: cell-based
Acinetobacter baumannii = test system: Acinetobacter baumannii
Method: (§1) To evaluate the potency and spectrum of the compounds, susceptibility testing was performed against up to nine strains of each of the Gram negative pathogens, Escherichia coli, Pseudomonas aeruginosa, Klebsiella pneumoniae and Acinetobacter baumannii.
(§2) The values in Table 2 are MIC (μg/mL) against strains of E. coli, K. pneumoniae, P. aeruginosa and A. baumanii, including strains which show elevated MICs to Polymyxin.
(§3) The values in Table 2A are MIC (μg/mL).
(§4) The in vitro activity of compounds 26 and C7 (FADDI-02) against resistant bacterial strains was compared. The resistant strains included including Escherichia coli, Pseudomonas aeruginosa, Klebsiella pneumoniae and Acinetobacter baumannii strains. The data is provided in Table 2C, where the strains are identified. The values in Table 2 are MIC (μg/mL).

Escherichia coli = test system: Escherichia coli
Method: as §1, §2, §3, §4

Klebsiella pneumoniae = test system: Klebsiella pneumoniae
Method: as §1, §2, §3, §4

Pseudomonas aeruginosa = test system: Pseudomonas aeruginosa
Method: as §1, §2, §3, §4

| Compound | MIC A. baumanii ATCC BAA-747 (Acinetobacter baumannii) | MIC A. baumanii NCTC 13424 (Acinetobacter baumannii) | MIC E. coli 058 (Escherichia coli) | MIC E. coli ATCC 25922 (Escherichia coli) | MIC K. pneumoniae 065 (Klebsiella pneumoniae) | MIC K. pneumoniae ATCC 13882 (Klebsiella pneumoniae) | MIC P. aeruginosa ATCC 27853 (Pseudomonas aeruginosa) | MIC P. aeruginosa CCUG 59347 (Pseudomonas aeruginosa) | MIC A. baumanii 053 (Acinetobacter baumannii) | MIC A. baumanii 056 (Acinetobacter baumannii) | MIC E. coli 061 (Escherichia coli) | MIC K. pneumoniae 063 (Klebsiella pneumoniae) | MIC P. aeruginosa 068 (Pseudomonas aeruginosa) | MIC P. aeruginosa 070 (Pseudomonas aeruginosa) | other results |
| --- | --- | --- | --- | --- | --- | --- | --- | --- | --- | --- | --- | --- | --- | --- | --- |
| CC(C)C[C@@H]1NC(=O)[C@@H](CC2CCCCC2)NC(=O)[C@H](CCN)NC(=O)[C@@H](NC(=O)[C@H](CN)NC(=O)[C@@H](NC(=O)CC(CN)Cc2ccccc2)[C@@H](C)O)CCNC(=O)[C@H]([C@@H](C)O)NC(=O)[C@H](CCN)NC(=O)[C@H](CCN)NC1=O (single isomer, unassigned; isomer 1) [Example 58, 4-amino-3-benzylbutanoyl L-Thr-L-Dap-polymyxin [D-cyclohexylalanine]-6 heptapeptide. Isomer 1] | – | – | – | – | – | – | – | – | – | – | – | – | – | – | MIC A. baumanii 053 (Acinetobacter baumannii; strain 053): 64 µg/mL (≈ 56.6 µM); MIC A. baumanii 056 (Acinetobacter baumannii; strain 056): 64 µg/mL (≈ 56.6 µM); MIC A. baumanii ATCC BAA-747 (Acinetobacter baumannii; strain ATCC BAA-747): 0.03 µg/mL (≈ 0.0265 µM); MIC A. baumanii NCTC 13424 (Acinetobacter baumannii; strain NCTC 13424): 0.125 µg/mL (≈ 0.111 µM); MIC E. coli 058 (Escherichia coli; strain 058): 4 µg/mL (≈ 3.54 µM); MIC E. coli 061 (Escherichia coli; strain 061): 16 µg/mL (≈ 14.2 µM); MIC E. coli ATCC 25922 (Escherichia coli; strain ATCC 25922): 0.25 µg/mL (≈ 0.221 µM); MIC E. coli NCTC 9001 (Escherichia coli; strain NCTC 9001): 0.125 µg/mL (≈ 0.111 µM); MIC K. pneumoniae 063 (Klebsiella pneumoniae; strain 063): 64 µg/mL (≈ 56.6 µM); MIC K. pneumoniae 065 (Klebsiella pneumoniae; strain 065): 4 µg/mL (≈ 3.54 µM); MIC K. pneumoniae ATCC 13882 (Klebsiella pneumoniae; strain ATCC 13882): 0.25 µg/mL (≈ 0.221 µM); MIC P. aeruginosa 068 (Pseudomonas aeruginosa; strain 068): 2 µg/mL (≈ 1.77 µM); MIC P. aeruginosa 070 (Pseudomonas aeruginosa; strain 070): 8 µg/mL (≈ 7.08 µM); MIC P. aeruginosa ATCC 27853 (Pseudomonas aeruginosa; strain ATCC 27853): 0.25 µg/mL (≈ 0.221 µM); MIC P. aeruginosa CCUG 59347 (Pseudomonas aeruginosa; strain CCUG 59347): 0.25 µg/mL (≈ 0.221 µM) |
| CC(C)C[C@@H]1NC(=O)[C@@H](CC2CCCCC2)NC(=O)[C@H](CCN)NC(=O)[C@@H](NC(=O)[C@H](CN)NC(=O)[C@@H](NC(=O)CC(CN)c2ccc(Cl)cc2)C(C)O)CCNC(=O)[C@H]([C@@H](C)O)NC(=O)[C@H](CCN)NC(=O)[C@H](CCN)NC1=O (single isomer, unassigned; isomer 1) [Example 50, 4-amino-3-(4-chlorophenyl) butanoyl L-Thr-L-Dap-polymyxin [D-cyclohexylalanine]-6 heptapeptide. Isomer 1] | 0.125 µg/mL (≈ 0.109 µM) | 0.25 µg/mL (≈ 0.217 µM) | 2 µg/mL (≈ 1.74 µM) | 0.5 µg/mL (≈ 0.434 µM) | 1 µg/mL (≈ 0.869 µM) | 0.25 µg/mL (≈ 0.217 µM) | 0.25 µg/mL (≈ 0.217 µM) | 0.5 µg/mL (≈ 0.434 µM) | 32 µg/mL (≈ 27.8 µM) | 16 µg/mL (≈ 13.9 µM) | 16 µg/mL (≈ 13.9 µM) | – | 1 µg/mL (≈ 0.869 µM) | 2 µg/mL (≈ 1.74 µM) | – |
| CC(C)C[C@@H]1NC(=O)[C@@H](CC2CCCCC2)NC(=O)[C@H](CCN)NC(=O)[C@@H](NC(=O)[C@H](CN)NC(=O)[C@@H](NC(=O)C(CN)CC2CCCCC2)C(C)O)CCNC(=O)[C@H]([C@@H](C)O)NC(=O)[C@H](CCN)NC(=O)[C@H](CCN)NC1=O (stereo partly drawn) [Example 31, 3-amino-2-(cyclohexylmethyl) propanoyl L-Thr-L-Dap-polymyxin [D-cyclohexylalanine]-6 heptapeptide] (X21-[Thr(3ξ)][Dap][Dab][Dab][dCha]L[Dab][Dab]T; lactam 3-C) | 0.25 µg/mL (≈ 0.223 µM) | 0.5 µg/mL (≈ 0.445 µM) | 2 µg/mL (≈ 1.78 µM) | 0.5 µg/mL (≈ 0.445 µM) | 1 µg/mL (≈ 0.891 µM) | 0.5 µg/mL (≈ 0.445 µM) | 0.5 µg/mL (≈ 0.445 µM) | 1 µg/mL (≈ 0.891 µM) | 32 µg/mL (≈ 28.5 µM) | 16 µg/mL (≈ 14.3 µM) | 16 µg/mL (≈ 14.3 µM) | 16 µg/mL (≈ 14.3 µM) | 2 µg/mL (≈ 1.78 µM) | 2 µg/mL (≈ 1.78 µM) | – |
| CC(C)C[C@@H]1NC(=O)[C@@H](CC2CCCCC2)NC(=O)[C@H](CCN)NC(=O)[C@@H](NC(=O)[C@H](CCN)NC(=O)[C@@H](NC(=O)CC(CN)CC2CCCCC2)[C@@H](C)O)CCNC(=O)[C@H]([C@@H](C)O)NC(=O)[C@H](CCN)NC(=O)[C@H](CCN)NC1=O (single isomer, unassigned; isomer 1) [Example 91, 4-amino-3-(cyclohexylmethyl) butanoyl polymyxin [D-cyclohexylalanine-6]nonapeptide. Isomer 1] | – | – | – | – | – | – | – | – | – | – | – | – | – | – | MIC A. baumanii ATCC BAA-747 (Acinetobacter baumannii; strain ATCC BAA-747): 0.25 µg/mL (≈ 0.217 µM); MIC A. baumanii NCTC 13424 (Acinetobacter baumannii; strain NCTC 13424): 0.125 µg/mL (≈ 0.109 µM); MIC E. coli 058 (Escherichia coli; strain 058): 4 µg/mL (≈ 3.48 µM); MIC E. coli ATCC 25922 (Escherichia coli; strain ATCC 25922): 0.125 µg/mL (≈ 0.109 µM); MIC K. pneumoniae 065 (Klebsiella pneumoniae; strain 065): 4 µg/mL (≈ 3.48 µM); MIC K. pneumoniae ATCC 13882 (Klebsiella pneumoniae; strain ATCC 13882): 0.25 µg/mL (≈ 0.217 µM); MIC P. aeruginosa ATCC 27853 (Pseudomonas aeruginosa; strain ATCC 27853): 0.25 µg/mL (≈ 0.217 µM); MIC P. aeruginosa CCUG 59347 (Pseudomonas aeruginosa; strain CCUG 59347): 0.5 µg/mL (≈ 0.435 µM) |

More lines, main results first:

| MIC A. baumanii ATCC BAA-747 (Acinetobacter baumannii) | MIC A. baumanii NCTC 13424 (Acinetobacter baumannii) | MIC E. coli 058 (Escherichia coli) | MIC E. coli ATCC 25922 (Escherichia coli) | MIC K. pneumoniae 065 (Klebsiella pneumoniae) | MIC K. pneumoniae ATCC 13882 (Klebsiella pneumoniae) | MIC P. aeruginosa ATCC 27853 (Pseudomonas aeruginosa) | MIC P. aeruginosa CCUG 59347 (Pseudomonas aeruginosa) | MIC A. baumanii 053 (Acinetobacter baumannii) | MIC A. baumanii 056 (Acinetobacter baumannii) | MIC E. coli 061 (Escherichia coli) | MIC K. pneumoniae 063 (Klebsiella pneumoniae) | MIC P. aeruginosa 068 (Pseudomonas aeruginosa) | MIC P. aeruginosa 070 (Pseudomonas aeruginosa) | Compound | other results |
| --- | --- | --- | --- | --- | --- | --- | --- | --- | --- | --- | --- | --- | --- | --- | --- |
| 0.25 µg/mL (≈ 0.224 µM) | 0.25 µg/mL (≈ 0.224 µM) | 8 µg/mL (≈ 7.17 µM) | 0.25 µg/mL (≈ 0.224 µM) | 32 µg/mL (≈ 28.7 µM) | 0.25 µg/mL (≈ 0.224 µM) | 0.25 µg/mL (≈ 0.224 µM) | 0.5 µg/mL (≈ 0.448 µM) | – | – | – | – | – | – | CC(C)C[C@@H]1NC(=O)[C@@H](CC2CCCCC2)NC(=O)[C@H](CCN)NC(=O)[C@@H](NC(=O)[C@H](CN)NC(=O)[C@@H](NC(=O)CCC(N)c2ccccc2)[C@@H](C)O)CCNC(=O)[C@H]([C@@H](C)O)NC(=O)[C@H](CCN)NC(=O)[C@H](CCN)NC1=O (single isomer, unassigned; isomer 2) [Example 61, 4-amino-4-phenylbutanoyl L-Thr-L-Dap-polymyxin [D-cyclohexylalanine]-6 heptapeptide. Isomer 2] | – |
| 0.125 µg/mL (≈ 0.109 µM) | 0.25 µg/mL (≈ 0.218 µM) | 4 µg/mL (≈ 3.48 µM) | 0.125 µg/mL (≈ 0.109 µM) | 1 µg/mL (≈ 0.871 µM) | 0.25 µg/mL (≈ 0.218 µM) | 0.25 µg/mL (≈ 0.218 µM) | 0.5 µg/mL (≈ 0.435 µM) | 32 µg/mL (≈ 27.9 µM) | 8 µg/mL (≈ 6.97 µM) | 16 µg/mL (≈ 13.9 µM) | 32 µg/mL (≈ 27.9 µM) | 4 µg/mL (≈ 3.48 µM) | 4 µg/mL (≈ 3.48 µM) | CC(C)C[C@@H]1NC(=O)[C@@H](CC2CCCCC2)NC(=O)[C@H](CCN)NC(=O)[C@@H](NC(=O)[C@H](CCN)NC(=O)[C@@H](NC(=O)C(CCN)c2ccc(F)cc2)C(C)O)CCNC(=O)[C@H]([C@@H](C)O)NC(=O)[C@H](CCN)NC(=O)[C@H](CCN)NC1=O (single isomer, unassigned; isomer 2) [Example 54, 4-amino-2-(4-fluorophenyl) butanoyl polymyxin [D-cyclohexylalanine]-6 nonapeptide isomer 2] | MIC E. coli NCTC 9001 (Escherichia coli): 0.06 µg/mL (≈ 0.0522 µM) |
| 0.125 µg/mL (≈ 0.107 µM) | 0.125 µg/mL (≈ 0.107 µM) | 1 µg/mL (≈ 0.857 µM) | 0.125 µg/mL (≈ 0.107 µM) | 4 µg/mL (≈ 3.43 µM) | 0.125 µg/mL (≈ 0.107 µM) | 0.125 µg/mL (≈ 0.107 µM) | 0.25 µg/mL (≈ 0.214 µM) | 32 µg/mL (≈ 27.4 µM) | 8 µg/mL (≈ 6.86 µM) | 16 µg/mL (≈ 13.7 µM) | 16 µg/mL (≈ 13.7 µM) | 2 µg/mL (≈ 1.71 µM) | 2 µg/mL (≈ 1.71 µM) | CC(C)C[C@@H]1NC(=O)[C@@H](CC2CCCCC2)NC(=O)[C@H](CCN)NC(=O)[C@@H](NC(=O)[C@H](CN)NC(=O)[C@@H](NC(=O)[C@H](CN)OCc2ccc(Cl)cc2)[C@@H](C)O)CCNC(=O)[C@H]([C@@H](C)O)NC(=O)[C@H](CCN)NC(=O)[C@H](CCN)NC1=O [Example 81, (S)-3-amino-2-((4-chlorobenzyl)oxy) propanoyl L-Thr-L-Dap-polymyxin [D-cyclohexylalanine-6]heptapeptide] (X10-T[Dap][Dab][Dab][dCha]L[Dab][Dab]T; lactam 3-C) | MIC E. coli NCTC 9001 (Escherichia coli): 0.03 µg/mL (≈ 0.0257 µM); MIC K. pneumoniae ATCC 4352 (Klebsiella pneumoniae): 0.25 µg/mL (≈ 0.214 µM) |
